# ± gives the expanded uncertainty stated by the source.
# Assay: xn = mol fraction of the nth substance listed
# Conditions: 101 kPa, Liquid; for viscosity: Capillary tube (Ostwald / Ubbelohde) method; for mass density: Pycnometric method; for electrical conductivity: conductivity meter
compound,measurement,setting,value
C[N+](C)(C)CCO.[Cl-] [choline chloride] + Oc1ccccc1,viscosity,"293.2 K, x2 = 0.6667",120.77 ± 7.6 mPa·s
same,viscosity,"293.2 K, x2 = 0.75",57.84 ± 3.6 mPa·s
same,viscosity,"293.2 K, x2 = 0.8",40.23 ± 2.5 mPa·s
same,viscosity,"293.2 K, x2 = 0.8333",31.96 ± 2 mPa·s
same,viscosity,"293.2 K, x2 = 0.8571",27.03 ± 1.7 mPa·s
same,mass density,"293.2 K, x2 = 0.6667",1099.5 ± 2.4 kg/m3
same,mass density,"293.2 K, x2 = 0.75",1094.8 ± 2.4 kg/m3
same,mass density,"293.2 K, x2 = 0.8",1091.8 ± 2.4 kg/m3
same,mass density,"293.2 K, x2 = 0.8333",1089.8 ± 2.4 kg/m3
same,mass density,"293.2 K, x2 = 0.8571",1088.5 ± 2.4 kg/m3
same,electrical conductivity,"293.2 K, x2 = 0.6667",0.14 ± 0.003 S/m
same,electrical conductivity,"293.2 K, x2 = 0.75",0.238 ± 0.005 S/m
same,electrical conductivity,"293.2 K, x2 = 0.8",0.275 ± 0.006 S/m
same,electrical conductivity,"293.2 K, x2 = 0.8333",0.281 ± 0.006 S/m
same,electrical conductivity,"293.2 K, x2 = 0.8571",0.273 ± 0.005 S/m
same,viscosity,"298.2 K, x2 = 0.6667",90.33 ± 5.6 mPa·s
same,viscosity,"298.2 K, x2 = 0.75",44.64 ± 2.8 mPa·s
same,viscosity,"298.2 K, x2 = 0.8",31.55 ± 1.9 mPa·s
same,viscosity,"298.2 K, x2 = 0.8333",25.25 ± 1.6 mPa·s
same,viscosity,"298.2 K, x2 = 0.8571",21.43 ± 1.3 mPa·s
same,mass density,"298.2 K, x2 = 0.6667",1096.7 ± 2.4 kg/m3
same,mass density,"298.2 K, x2 = 0.75",1092.1 ± 2.4 kg/m3
same,mass density,"298.2 K, x2 = 0.8",1089.3 ± 2.4 kg/m3
same,mass density,"298.2 K, x2 = 0.8333",1087 ± 2.4 kg/m3
same,mass density,"298.2 K, x2 = 0.8571",1085.2 ± 2.4 kg/m3
same,electrical conductivity,"298.2 K, x2 = 0.6667",0.205 ± 0.004 S/m
same,electrical conductivity,"298.2 K, x2 = 0.75",0.314 ± 0.006 S/m
same,electrical conductivity,"298.2 K, x2 = 0.8",0.345 ± 0.007 S/m
same,electrical conductivity,"298.2 K, x2 = 0.8333",0.347 ± 0.007 S/m
same,electrical conductivity,"298.2 K, x2 = 0.8571",0.338 ± 0.007 S/m
same,viscosity,"303.2 K, x2 = 0.6667",68.41 ± 4.2 mPa·s
same,viscosity,"303.2 K, x2 = 0.75",35.17 ± 2.2 mPa·s
same,viscosity,"303.2 K, x2 = 0.8",25.2 ± 1.6 mPa·s
same,viscosity,"303.2 K, x2 = 0.8333",19.75 ± 1.2 mPa·s
same,viscosity,"303.2 K, x2 = 0.8571",16.82 ± 1 mPa·s
same,mass density,"303.2 K, x2 = 0.6667",1093 ± 2.4 kg/m3
same,mass density,"303.2 K, x2 = 0.75",1089 ± 2.4 kg/m3
same,mass density,"303.2 K, x2 = 0.8",1086 ± 2.4 kg/m3
same,mass density,"303.2 K, x2 = 0.8333",1083.8 ± 2.4 kg/m3
same,mass density,"303.2 K, x2 = 0.8571",1081.8 ± 2.4 kg/m3
same,electrical conductivity,"303.2 K, x2 = 0.6667",0.265 ± 0.005 S/m
same,electrical conductivity,"303.2 K, x2 = 0.75",0.388 ± 0.008 S/m
same,electrical conductivity,"303.2 K, x2 = 0.8",0.421 ± 0.008 S/m
same,electrical conductivity,"303.2 K, x2 = 0.8333",0.425 ± 0.009 S/m
same,electrical conductivity,"303.2 K, x2 = 0.8571",0.409 ± 0.008 S/m
same,viscosity,"308.2 K, x2 = 0.6667",53.43 ± 3.3 mPa·s
same,viscosity,"308.2 K, x2 = 0.75",28.22 ± 1.7 mPa·s
same,viscosity,"308.2 K, x2 = 0.8",20.25 ± 1.2 mPa·s
same,viscosity,"308.2 K, x2 = 0.8333",16.16 ± 0.99 mPa·s
same,viscosity,"308.2 K, x2 = 0.8571",13.76 ± 0.84 mPa·s
same,mass density,"308.2 K, x2 = 0.6667",1090.1 ± 2.4 kg/m3
same,mass density,"308.2 K, x2 = 0.75",1085.8 ± 2.4 kg/m3
same,mass density,"308.2 K, x2 = 0.8",1081.9 ± 2.4 kg/m3
same,mass density,"308.2 K, x2 = 0.8333",1080.3 ± 2.4 kg/m3
same,mass density,"308.2 K, x2 = 0.8571",1078.2 ± 2.4 kg/m3
same,electrical conductivity,"308.2 K, x2 = 0.6667",0.337 ± 0.007 S/m
same,electrical conductivity,"308.2 K, x2 = 0.75",0.477 ± 0.01 S/m
same,electrical conductivity,"308.2 K, x2 = 0.8",0.507 ± 0.01 S/m
same,electrical conductivity,"308.2 K, x2 = 0.8333",0.508 ± 0.01 S/m
same,electrical conductivity,"308.2 K, x2 = 0.8571",0.487 ± 0.01 S/m
same,viscosity,"313.2 K, x2 = 0.6667",42.42 ± 2.6 mPa·s
same,viscosity,"313.2 K, x2 = 0.75",23.08 ± 1.4 mPa·s
same,viscosity,"313.2 K, x2 = 0.8",16.71 ± 1 mPa·s
same,viscosity,"313.2 K, x2 = 0.8333",13.44 ± 0.82 mPa·s
same,viscosity,"313.2 K, x2 = 0.8571",11.45 ± 0.7 mPa·s
same,mass density,"313.2 K, x2 = 0.6667",1087.3 ± 2.4 kg/m3
same,mass density,"313.2 K, x2 = 0.75",1082.9 ± 2.4 kg/m3
same,mass density,"313.2 K, x2 = 0.8",1079.5 ± 2.4 kg/m3
same,mass density,"313.2 K, x2 = 0.8333",1076.1 ± 2.4 kg/m3
same,mass density,"313.2 K, x2 = 0.8571",1074.5 ± 2.4 kg/m3
same,electrical conductivity,"313.2 K, x2 = 0.6667",0.416 ± 0.008 S/m
same,electrical conductivity,"313.2 K, x2 = 0.75",0.576 ± 0.012 S/m
same,electrical conductivity,"313.2 K, x2 = 0.8",0.602 ± 0.012 S/m
same,electrical conductivity,"313.2 K, x2 = 0.8333",0.599 ± 0.012 S/m
same,electrical conductivity,"313.2 K, x2 = 0.8571",0.574 ± 0.011 S/m
same,viscosity,"318.2 K, x2 = 0.6667",34.34 ± 2.1 mPa·s
same,viscosity,"318.2 K, x2 = 0.75",19.14 ± 1.2 mPa·s
same,viscosity,"318.2 K, x2 = 0.8",14 ± 0.86 mPa·s
same,viscosity,"318.2 K, x2 = 0.8333",11.26 ± 0.69 mPa·s
same,viscosity,"318.2 K, x2 = 0.8571",9.46 ± 0.58 mPa·s
same,mass density,"318.2 K, x2 = 0.6667",1084.3 ± 2.4 kg/m3
same,mass density,"318.2 K, x2 = 0.75",1079.5 ± 2.4 kg/m3
same,mass density,"318.2 K, x2 = 0.8",1076.3 ± 2.4 kg/m3
same,mass density,"318.2 K, x2 = 0.8333",1073.6 ± 2.4 kg/m3
same,mass density,"318.2 K, x2 = 0.8571",1071.7 ± 2.4 kg/m3
same,electrical conductivity,"318.2 K, x2 = 0.6667",0.509 ± 0.01 S/m
same,electrical conductivity,"318.2 K, x2 = 0.75",0.677 ± 0.014 S/m
same,electrical conductivity,"318.2 K, x2 = 0.8",0.706 ± 0.014 S/m
same,electrical conductivity,"318.2 K, x2 = 0.8333",0.696 ± 0.014 S/m
same,electrical conductivity,"318.2 K, x2 = 0.8571",0.666 ± 0.013 S/m

# — the NIST ThermoML archive (doi:10.1021/je300997v)
